This is an account of results in patent publication US7642261B2, “Use of 1-[4-(5-cyanoindol-3-yl)butyl]-4-(2-carbamoyl-benzofuran-5-yl)-piperazine and its physiologically acceptable salts” (Merck Patent GmbH, priority 2002, dated 2010).

Type in all cases: in vivo
The subject of test [1] is mice. The experiment in a line: Elevated Plus Maze (model for agoraphobia), mice. Particulars: 10 mg/kg p.o., 3 min test period. As for the experimental part: A typical model for Agoraphobia is named Elevated Plus Maze according to S. Pellow, P. Chopin, S. E. File, M. Briley, J. Neurosci. Meth., 1985,14: 145-167.
The apparatus consists of an X-shaped platform elevated from the floor, with two “open” unprotected arms and two “closed” protected arms, with animals having free access to both arms. The rat or mouse is placed in the centre of the arms, and the number of entires made and the time spent on the open arms is measured in a 3 min test period. Normal animals have very low basal levels, i.e. avoid entering the open arms and stay only a for a very brief period on open arms.
In rats, a dose of 10 mg/kg p.o. increased number of entries by 56% and time spent on open arms by 76%.

The test system of test [2] is rats. Put plainly: Social Interaction Test (model for social phobia). The following applies: pairs of unfamiliar rats, oral dose of 10 mg/kg, 300 sec total time; vehicle 116 sec. How it is done:
A model for social phobia is the Social Interaction Test according to S. File, J. R. G Hyde, J. Pharm. Pharmacol. 1977, 29: 735-738. Pairs of rats not familiar with each other are placed in an open test box brightly lit (aversive condition), and the number and duration of social contacts during a 5 min test session are recorded.
1-[4-(5-cyanoindol-3-yl)butyl]-4-(2-carbamoyl-benzofuran-5-yl)-piperazine or one of its physiologically acceptable salts, in particular 1-[4-(5-cyanoindol-3-yl)butyl]-4-(2-carbamoyl-benzofuran-5-yl)-piperazine hydrochloride, increase the time spent in social interaction. For example, for an oral dose of 10 mg/kg of 1-[4-(5-cyanoindol-3-yl)butyl]-4-(2-carbamoyl-benzofuran-5-yl)-piperazine hydrochloride the pairs of rats unfamiliar to each other spend 144 sec of the 300 sec of total time with social interaction compared to 116 sec for the vehicle treated pairs of rats.

For test [3], the system named is rats. The experiment in a line: Animal models of sexual function (behavioural measures for sexual activity). The following applies: penile erection, ejaculatory behaviour, mating frequency in male rats, receptive behaviours in female rats. From the text: In animal models, various behavioural measures for sexual function can be used in animal models depending on the targeted dysfunction in humans, e.g. reduced libido, anorgasmia, or ejaculation disorders. Measures for sexual activity in animals include fascilitation or prolongation of penile erection, ejaculatory behaviour or frequency of mating behaviour in male rats, or the percentage of receptive behaviours in female rats [e.g.: S. Ahlenius and K. Larsson, Neurochem. Res., 1997, 22: 1065-1070; S. Ahlenius and K. Larsson, Psychopharmacology, 1998, 137: 374-382; J. Vega-Matuszcyk et al., Pharmacol. Biochem. Behav., 1998, 60: 527-532; J. M. Cantor et al., Psychopharmacology, 1999; 144: 355-362]. 1-[4-(5-cyancindol-3-yl)butyl]-4-(2-carbamoyl-benzofuran-5-yl)-piperazine or one of its physiologically acceptable salts, in particular 1-[4-(5-cyanoindol-3-yl)butyl]-4-(2-carbamoyl-benzofuran-5-yl)-piperazine hydrochloride, were effective on various measures mentioned before.

The test system of test [4] is mice. The experiment in a line: Neophobia model: unfamiliar food in a novel environment. The following applies: mice deprived from food for 18 h, oral application, 3 mg/kg. As for the experimental part: In a typical model for neophobia, mice deprived from food for 18 h are given access to unfamiliar food in a novel environment [P. Soubrie at al., Psychopharmacologica, 1975, 45: 203-210]. 1-[4-(5-cyanoindol-3-yl)butyl]-4-(2-carbamoyl-benzofuran-5-yl)-piperazine or one of its physiologically acceptable salts, in particular 1-[4-(5-cyanoindol-3-yl)butyl]-4-(2-carbamoyl-benzofuran-5-yl)-piperazine hydrochloride, following oral application increased food intake by 21% at the dose of 3 mg/kg.

For the compound `Cl.N#Cc1ccc2[nH]cc(CCCCN3CCN(c4ccc5oc(C(N)=O)cc5c4)CC3)c2c1` [1-[4-(5-cyanoindol-3-yl)butyl]-4-(2-carbamoyl-benzofuran-5-yl)-piperazine hydrochloride], in the test with mice [1], the “increase of number of entries on open arms” value worked out at 157% and the “increase of time spent on open arms” value came to 105%. In addition, the “time spent in social interaction” value in the test on rats [2] was 144 s. The “effect on measures for sexual activity” value with rats [3] is on record as “effective”. For the same compound, the “increase of food intake” value with mice [4] worked out at 21%.
